# How the values were obtained:
# [1] = tested on: Trichophyton mentagrophytes SM-110; test: Antifungal activity evaluation test: minimum inhibitory concentration (MIC), broth dilution by reference to CLSI M38-A2; format: cell-based; settings: SM110, read-out: MIC (T. menta.)
# In short: (§1)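 Broth microdilution after CLSI M38-A2: 2-fold DMSO dilution series in MOPS-buffered RPMI 1640 pH 7.0, inoculum 2×10^3 cells/mL final. Incubated 35° C for 4 days; MIC (μg/mL) is lowest concentration giving visually ≥80% growth inhibition versus growth control.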
# [2] = tested on: Trichophyton rubrum KD-1130; test: as above; format: cell-based; settings: KD1130, read-out: MIC (T. rubrum)
# In short: as §1
Structure (SMILES),MIC [1],MIC [2]
"FC(F)(F)c1ccc(Oc2ncccc2-c2cccc3c(Br)cnn23)cn1 [I-52, 3-bromo-7-(2-{[6-(trifluoromethyl)pyridin-3-yl]oxy}pyridin-3-yl)-pyrazolo[1,5-a]pyridine]",0.2 to 0.78 µg/mL,≤ 0.1 µg/mL
"FC(F)(F)c1ccc(Oc2ncccc2-c2cccc3c(Cl)cnn23)cn1 [I-51, 3-chloro-7-(2-{[6-(trifluoromethyl)pyridin-3-yl]oxy}pyridin-3-yl)-pyrazolo[1,5-a]pyridine]",≤ 0.1 µg/mL,≤ 0.1 µg/mL
Cc1ccncc1-c1cccnc1Oc1ccc(C(F)(F)F)nc1 [I-25],0.2 to 0.78 µg/mL,0.2 to 0.78 µg/mL
"CN(C)c1ccccc1-c1cccnc1Oc1ccc(C(F)(F)F)nc1 [I-62, N,N-dimethyl-2-(2-{[6-(trifluoromethyl)pyridin-3-yl]oxy}pyridin-3-yl)-aniline]",1.56 to 6.25 µg/mL,0.2 to 0.78 µg/mL
"CC(F)(F)c1ccc(Oc2ncccc2-c2cccnc2-n2ccnc2)cn1 [I-106, 2-{[6-(1,1-difluoroethyl)pyridin-3-yl]oxy}-2′-(1H-imidazol-1-yl)-3,3′-bipyridine]",1.56 to 6.25 µg/mL,1.56 to 6.25 µg/mL
"COc1ccncc1-c1cccnc1Oc1ccc(C2CC2)nc1 [I-133, 2-[(6-cyclopropylpyridin-3-yl)oxy]-4′-methoxy-3,3′-bipyridine]",1.56 to 6.25 µg/mL,1.56 to 6.25 µg/mL
"CC(F)(F)c1ccc(Oc2ncccc2-c2cncc3ccccc23)cn1 [I-109, 4-(2-{[6-(1,1-difluoroethyl)pyridin-3-yl]oxy}pyridin-3-yl)isoquinoline]",≤ 0.1 µg/mL,≤ 0.1 µg/mL
"COc1ccc(-c2cccnc2Oc2cnc(C(F)F)c(C)c2)c(OC)n1 [I-123, 2′-{[6-(difluoromethyl)-5-methylpyridin-3-yl]oxy}-2,6-dimethoxy-3,3′-bipyridine]",≤ 0.1 µg/mL,≤ 0.1 µg/mL
"Fc1cc2c(c(-c3cccnc3Oc3ccc(C(F)(F)F)nc3)c1)OCC2 [I-41, 3-(5-fluoro-2,3-dihydrobenzofuran-7-yl)-2-{[6-(trifluoromethyl)pyridin-3-yl]oxy}pyridine]",≤ 0.1 µg/mL,≤ 0.1 µg/mL
"COc1ccccc1-c1cccnc1Oc1ccc(C(F)(F)CN2CCOCC2)nc1 [I-148, 4-[2,2-difluoro-2-(5-{[3-(2-methoxyphenyl)pyridin-2-yl]oxy}pyridin-2-yl)-ethyl]morpholine]",0.2 to 0.78 µg/mL,0.2 to 0.78 µg/mL
"Cc1cc(-c2cccnc2Oc2ccc(C(F)(F)F)nc2)n2nccc2n1 [I-48, 5-methyl-7-(2-{[6-(trifluoromethyl)pyridin-3-yl]oxy}pyridin-3-yl)-pyrazolo[1,5-a]pyrimidine]",1.56 to 6.25 µg/mL,0.2 to 0.78 µg/mL
"COc1cccc(-c2cccnc2Oc2ccc(C(C)(F)F)nc2)n1 [I-95, 2′-{[6-(1,1-difluoroethyl)pyridin-3-yl]oxy}-6-methoxy-2,3′-bipyridine]",0.2 to 0.78 µg/mL,0.2 to 0.78 µg/mL
"COc1ccccc1-c1cccnc1Oc1ccc(COC(C)=O)nc1 [I-69, (5-{[3-(2-methoxyphenyl)-pyridin-2-yl]oxy}pyridin-2-yl)methyl acetate]",1.56 to 6.25 µg/mL,1.56 to 6.25 µg/mL
"Fc1cccc(-c2cccnc2Oc2ccc(C(F)(F)F)nc2)c1F [I-9, 3-(2,3-difluorophenyl)-2-{[6-(trifluoromethyl)pyridin-3-yl]oxy}pyridine]",0.2 to 0.78 µg/mL,≤ 0.1 µg/mL
"C#Cc1ccccc1-c1cccnc1Oc1ccc(C(F)(F)F)nc1 [I-64, 3-(2-ethynylphenyl)-2-{[6-(trifluoromethyl)pyridin-3-yl]oxy}pyridine]",≤ 0.1 µg/mL,≤ 0.1 µg/mL
"COc1ccccc1-c1cccnc1Oc1cnc2c(c1)CCCC2 [I-134, 3-{[3-(2-methoxyphenyl)pyridin-2-yl]oxy}-5,6,7,8-tetrahydroquinoline]",≤ 0.1 µg/mL,≤ 0.1 µg/mL
"COc1ccccc1-c1cccnc1Oc1cnc2c(c1)CCC=C2 [I-144, 3-{[3-(2-methoxyphenyl)pyridin-2-yl]oxy}-5,6-dihydroquinoline]",≤ 0.1 µg/mL,≤ 0.1 µg/mL
"COc1ccccc1-c1cccnc1Oc1ccc(C(C)(F)F)nc1 [I-81, 2-{[6-(1,1-difluoroethyl)pyridin-3-yl]oxy}-3-(2-methoxyphenyl)pyridine]",≤ 0.1 µg/mL,≤ 0.1 µg/mL
"FC(F)(F)c1ccc(Oc2ncccc2-c2ccccc2Cl)cn1 [I-4, 3-(2-chlorophenyl)-2-{[6-(trifluoromethyl)pyridin-3-yl]oxy}pyridine]",≤ 0.1 µg/mL,≤ 0.1 µg/mL
"COc1ccccc1-c1cccnc1Oc1ccc(C(F)(F)COS(=O)(=O)C(F)(F)F)nc1 [I-80, 2,2-difluoro-2-(5-{[3-(2-methoxyphenyl)pyridin-2-yl]oxy}pyridin-2-yl)ethyl trifluoromethanesulfonate]",0.2 to 0.78 µg/mL,0.2 to 0.78 µg/mL

# Results, then the molecule that gave them:
MIC [1],MIC [2],Structure (SMILES)
0.2 to 0.78 µg/mL,0.2 to 0.78 µg/mL,"COc1ccncc1-c1cccnc1Oc1ccc(OC(F)F)cc1 [I-238, 2-[4-(difluoromethoxy)phenoxy]-4′-methoxy-3,3′-bipyridine]"
≤ 0.1 µg/mL,≤ 0.1 µg/mL,"CCc1ccc(Oc2ncccc2-c2cncnc2OC)cc1 [I-282, 5-[2-(4-ethylphenoxy)pyridin-3-yl]-4-methoxypyrimidine]"
0.2 to 0.78 µg/mL,0.2 to 0.78 µg/mL,"CCc1ccc(Oc2ncccc2-c2cncc(C=O)c2OC)cc1 [I-287, 2′-(4-ethylphenoxy)-4-methoxy-(3,3′-bipyridine)-5-carbaldehyde]"
≤ 0.1 µg/mL,≤ 0.1 µg/mL,"COc1ncccc1-c1cccnc1Oc1ccc(CCOC(C)=O)cc1 [I-397, 4-{[(2′-methoxy)-(3,3′-bipyridin)-2-yl]oxy}phenethyl acetate]"
≤ 0.1 µg/mL,≤ 0.1 µg/mL,COc1c(Cl)cncc1-c1cccnc1Oc1ccc(C(C)(F)F)cc1 [I-300]
≤ 0.1 µg/mL,≤ 0.1 µg/mL,"COc1ccccc1-c1cccnc1Sc1ccc(C(F)(F)F)cc1 [I-436, 3-(2-methoxyphenyl)-2-{[4-(trifluoromethyl)phenyl]thio}pyridine]"
≤ 0.1 µg/mL,≤ 0.1 µg/mL,"COc1ccccc1-c1cncnc1Oc1ccc(C(F)F)c(C)c1 [I-323, 4-[4-(difluoromethyl)-3-methylphenoxy]-5-(2-methoxyphenyl)pyrimidine]"
0.2 to 0.78 µg/mL,0.2 to 0.78 µg/mL,"FC(F)(F)c1ccc(Oc2ncccc2-c2cccc3ncnn23)cc1 [I-230, 5-{2-[4-(trifluoromethyl)phenoxy]pyridin-3-yl}[1,2,4]triazolo[1,5-a]pyridine]"
0.2 to 0.78 µg/mL,1.56 to 6.25 µg/mL,"COc1ccncc1-c1cncnc1Oc1ccc(Cl)cc1 [I-357, 4-(4-chlorophenoxy)-5-(4-methoxypyridin-3-yl)pyrimidine]"
0.2 to 0.78 µg/mL,0.2 to 0.78 µg/mL,"COc1ccncc1-c1cccnc1Oc1ccc(C)c(C)c1 [I-262, 2-(3,4-dimethylphenoxy)-4′-methoxy-3,3′-bipyridine]"
≤ 0.1 µg/mL,≤ 0.1 µg/mL,"COc1ccccc1-c1cccnc1Oc1ccc2c(c1)CCCC2 [I-268, 3-(2-methoxyphenyl)-2-[(5,6,7,8-tetrahydronaphthalen-2-yl)oxy]pyridine]"
≤ 0.1 µg/mL,≤ 0.1 µg/mL,COc1ncccc1-c1cccnc1Oc1ccc(C(C)(F)F)cc1 [I-298]
1.56 to 6.25 µg/mL,1.56 to 6.25 µg/mL,"FC(F)(F)c1ccc(Oc2ncccc2-c2cncc3nccn23)cc1 [I-231, 5-{2-[4-(trifluoromethyl)phenoxy]pyridin-3-yl}imidazo[1,2-a]pyrazine]"
≤ 0.1 µg/mL,≤ 0.1 µg/mL,"COc1ccccc1-c1cccnc1Oc1ccc(OCc2cccnc2)nc1 [I-174, 3-(2-methoxyphenyl)pyridin-2-{[6-(pyridin-3-ylmethoxy)pyridin-3-yl]oxy}pyridine]"
≤ 0.1 µg/mL,≤ 0.1 µg/mL,"COc1cc(F)ccc1-c1cccnc1Oc1cnc(C2(C)CC2)nc1 [I-379, 5-{[3-(4-fluoro-2-methoxyphenyl)pyridin-2-yl]oxy}-2-(1-methylcyclopropyl)pyrimidine]"
≤ 0.1 µg/mL,≤ 0.1 µg/mL,"COc1cc(F)ccc1-c1cccnc1Oc1cnc(N(C)Cc2cocn2)nc1 [I-193, 5-{[3-(4-fluoro-2-methoxyphenyl)pyridin-2-yl]oxy}-N-methyl-N-(oxazol-4-ylmethyl)pyrimidin-2-amine]"
≤ 0.1 µg/mL,≤ 0.1 µg/mL,"COc1ncccc1-c1nccnc1Oc1ccc(OCc2ccccc2)cc1 [I-318, 2-[4-(benzyloxy)phenoxy]-3-(2-methoxypyridin-3-yl)pyrazine]"
≤ 0.1 µg/mL,≤ 0.1 µg/mL,"Cc1ccncc1-c1cccnc1Oc1ccc(C(C)(F)F)cc1F [I-303, 2-[4-(1,1-difluoroethyl)-2-fluorophenoxy]-4′-methyl-3,3′-bipyridine]"
0.2 to 0.78 µg/mL,0.2 to 0.78 µg/mL,CC(=O)c1ccc(Oc2ncccc2-c2cnccc2C)cc1 [I-422]
≤ 0.1 µg/mL,≤ 0.1 µg/mL,"COc1ccccc1-c1cncnc1Oc1ccc(C(F)(F)F)cc1 [I-321, 5-(2-methoxyphenyl)-4-[4-(trifluoromethyl)phenoxy]pyrimidine]"
≤ 0.1 µg/mL,≤ 0.1 µg/mL,"COc1ccccc1-c1cncnc1Oc1ccc(Cl)cc1 [I-319, 4-(4-chlorophenoxy)-5-(2-methoxyphenyl)pyrimidine]"
≤ 0.1 µg/mL,≤ 0.1 µg/mL,COCC(F)(F)c1ccc(Oc2ncccc2-c2cc(Cl)cnc2OC)cn1 [I-451]
≤ 0.1 µg/mL,≤ 0.1 µg/mL,"CCCN(C)c1ncc(Oc2ncccc2-c2ccccc2OC)cn1 [I-182, 5-{[3-(2-methoxyphenyl)pyridin-2-yl]oxy}-N-methyl-N-propylpyrimidin-2-amine]"
≤ 0.1 µg/mL,≤ 0.1 µg/mL,"FC(F)(F)c1ccc(Oc2ncccc2-c2cccc3cc(Cl)nn23)cn1 [I-375, 2-chloro-7-(2-{[6-(trifluoromethyl)pyridin-3-yl]oxy}pyridin-3-yl)pyrazolo[1,5-a]pyridine]"
≤ 0.1 µg/mL,≤ 0.1 µg/mL,COc1ccncc1-c1cccnc1Oc1ccc(C(C)(F)F)c(F)c1 [I-304]
0.2 to 0.78 µg/mL,0.2 to 0.78 µg/mL,"CCOC(=O)CCc1ncc(Oc2ncccc2-c2ccc(F)cc2OC)cn1 [I-195, ethyl 3-(5-{[3-(4-fluoro-2-methoxyphenyl)pyridin-2-yl]oxy}-pyrimidin-2-yl)propionate]"

# Source: US10647675B2 (priority 2015, dated 2020)
